In US8545903B2 (priority 2009, dated 2013):
Like-named read-outs stand apart in the source and are kept apart here.

Columns and labels:
[1] = in vivo; cited from earlier work
[2] = target: neuraminidase of recombinant rvH1N1 influenza A virus (A/Bervig_Mission/1/18) (Influenza A virus, UniProt Q9IGQ6); test: biochemical
[3] = test system: Madin-Darby canine kidney (MDCK, ATCC CCL-34) cell
[4] = in vivo; cited from earlier work; remark: listed apart in the source
in vitro [5] = settings: dog, mdck
[6] = target: neuraminidase (R&D SYSTEM, 4858-NM) of recombinant rvH1N1 influenza A virus of 1918 Spanish flu virus (A/Bervig_Mission/1/18) (Influenza A virus, UniProt Q9IGQ6); test: biochemical; set-up: species or system influenza A virus A/Bervig_Mission/1/18 (rvH1N1)
Chain of neuraminidase (R&D SYSTEM, 4858-NM) of recombinant rvH1N1 influenza A virus of 1918 Spanish flu virus (A/Bervig_Mission/1/18) (Q9IGQ6 36-469 limits assumed): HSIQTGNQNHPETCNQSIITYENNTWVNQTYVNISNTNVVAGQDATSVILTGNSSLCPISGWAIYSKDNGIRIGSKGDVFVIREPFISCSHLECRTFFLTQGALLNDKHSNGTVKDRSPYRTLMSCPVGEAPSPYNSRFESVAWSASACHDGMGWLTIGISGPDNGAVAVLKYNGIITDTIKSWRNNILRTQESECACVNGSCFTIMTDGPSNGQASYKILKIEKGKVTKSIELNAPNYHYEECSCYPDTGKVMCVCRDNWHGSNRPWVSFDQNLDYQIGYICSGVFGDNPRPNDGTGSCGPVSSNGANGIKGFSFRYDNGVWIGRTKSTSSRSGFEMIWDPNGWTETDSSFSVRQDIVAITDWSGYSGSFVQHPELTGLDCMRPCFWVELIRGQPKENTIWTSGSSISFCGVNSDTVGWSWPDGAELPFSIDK

[7] = test system: influenza virus H9N2 (A/Chicken/Korea/MS96/96); test: microbe, parasite or virus in culture; settings: H9N2, MDCK, in Gallus gallus, read-out: EC50, 50% antiviral concentration
in vitro [8] = settings: dog
[9] = test system: influenza virus H9N2 (A/Chicken/Korea/MS96/96); test: in vitro; settings: dog
[10] = test system: influenza virus H9N2 (A/Chicken/Korea/MS96/96); test: in vitro; settings: dog; remark: listed apart in the source
[11] = test system: influenza virus H9N2 (A/Chicken/Korea/MS96/96); test: microbe, parasite or virus in culture; settings: H9N2, MDCK, in Gallus gallus, read-out: EC50, 50% antiviral concentration; remark: listed apart in the source
[12] = test system: influenza virus H9N2 (A/Chicken/Korea/MS96/96); test: microbe, parasite or virus in culture; settings: H9N2, MDCK, in Gallus gallus, read-out: EC50, 50% antiviral concentration; remark: listed apart in the source
[13] = test system: influenza virus H9N2 (A/Chicken/Korea/MS96/96); test: microbe, parasite or virus in culture; settings: H9N2, MDCK, in Gallus gallus, read-out: EC50, 50% antiviral concentration; remark: listed apart in the source
[14] = test system: influenza virus H9N2 (A/Chicken/Korea/MS96/96); settings: read-out: EC50, 50% antiviral concentration
[15] = test system: influenza virus H9N2 (A/Chicken/Korea/MS96/96); settings: read-out: EC50, 50% antiviral concentration; remark: listed apart in the source
[16] = read-out: Neuraminidase inhibitory activity (IC50) A/Bervig-Mission/1/18 (rvH1N1)

Chain of neuraminidase of recombinant rvH1N1 influenza A virus (A/Bervig_Mission/1/18) (Q9IGQ6 whole entry, looked up): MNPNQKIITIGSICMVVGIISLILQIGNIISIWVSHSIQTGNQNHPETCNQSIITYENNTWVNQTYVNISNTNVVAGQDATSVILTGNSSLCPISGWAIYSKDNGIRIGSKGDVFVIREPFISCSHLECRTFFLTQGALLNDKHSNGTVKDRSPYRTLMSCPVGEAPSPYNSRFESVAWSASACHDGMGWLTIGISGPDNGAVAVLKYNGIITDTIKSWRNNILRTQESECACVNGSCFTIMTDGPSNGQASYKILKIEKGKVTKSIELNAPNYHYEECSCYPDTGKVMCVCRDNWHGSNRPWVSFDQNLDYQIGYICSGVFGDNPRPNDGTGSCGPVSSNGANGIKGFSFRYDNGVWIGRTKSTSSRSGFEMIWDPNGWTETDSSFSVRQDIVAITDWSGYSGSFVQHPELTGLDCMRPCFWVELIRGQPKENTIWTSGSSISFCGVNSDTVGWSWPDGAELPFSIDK

Question: For `CCOC(=O)C1=C[C@@H](OC(CC)CC)[C@H](NC(C)=O)[C@@H](N)C1` [Oseltamivir], which side effects [1] is on record?
Answer: severe vomiting

Question: For Demethoxycurcumin, which IC50 [2, 16] is on record?
Answer: 3 µM

Question: And the CC50 [3]?
Answer: 97 µM

Question: For `NC12CC3CC(CC(C3)C1)C2` [Amatadine], which side effects [1] is on record?
Answer: severe side effects occur in the nervous system and stomach

Question: For `CC(=O)N[C@H]1[C@H]([C@H](O)[C@H](O)CO)OC(C(=O)O)=C[C@@H]1N=C(N)N` [Zanamivir], which “release from the kidney” value [4] is on record?
Answer: quick release from the kidney

Question: For `CC(N)C12CC3CC(CC(C3)C1)C2` (centres unmarked) [Rimatadine], which side effects [1] is on record?
Answer: severe side effects occur in the nervous system and stomach

Question: With `COc1cc(/C=C/C(=O)/C=C(O)/C=C/c2ccc(O)cc2)ccc1O` [Demethoxycurcumin] as the molecule, how does the CC50 (in vitro [5]) read?
Answer: 97 µM

Question: What about the IC50 [6] of the same molecule?
Answer: 3 µM

Question: What does the source list for `CCOC(=O)C1=C[C@@H](OC(CC)CC)[C@H](NC(C)=O)[C@@H](N)C1` [Tamiflu, reference compound]?
Answer: EC50 [7]: < 1 µM; CC50 (in vitro [8]): > 200 µM; selectivity ratio [9]: > 200; selectivity ratio [10]: > 200; EC50 [11]: < 1 µM

Question: Which results are given for `O=C(/C=C(O)/C=C/c1ccc(O)cc1)/C=C/c1ccc(O)cc1` [Bisdemethoxycurcumin]?
Answer: EC50 [12]: 182 µM; CC50 (in vitro [5]): > 200 µM; EC50 [13]: > 200 µM; IC50 [6]: 6 µM

Question: For Bisdemethoxycurcumin, which EC50 [14] is on record?
Answer: > 200 µM

Question: And the IC50 [2, 16]?
Answer: 6 µM

Question: And the CC50 [3]?
Answer: > 200 µM

Question: What about the EC50 [15] of the same molecule?
Answer: 182 µM

Question: Which results are given for `COc1cc(/C=C/C(=O)/C=C(O)/C=C/c2ccc(O)c(OC)c2)ccc1O` [Curcumin]?
Answer: CC50 (in vitro [8]): 94.1 µM; IC50 [2]: 3 µM
